From patent US4906659A, “Antibiotic tan-749, its derivatives, production and use thereof” (Takeda Chemical Industries, Ltd., priority 1985, dated 1990)
In brackets after ≈: the same amount, converted by molar mass. Where a name gives a salt, the structure may show the parent alone.

What was measured:
S. aureus 308A-1 [1] = assay: Antibacterial activity against gram-positive bacteria, MIC (Table 3); format: cell-based; details: Staphylococcus aureus, 308A1; Tripticase Soy Agar; inoculum size 10^8 cfu/ml
Text: The antibacterial activities against gram-positive bacteria (S. aureus 308A-1) of some compounds of the invention are as shown in Table 3.
*Medium: Tripticase Soy Agar Inoculum size: 10^8 cfu/ml

S. aureus 308A-1 [2] = assay: Antibacterial activity in mice, ED50 (Table 3); format: in vivo; details: Staphylococcus aureus, 308A1, sc, S.C.
Text: The antibacterial activities against gram-positive bacteria (S. aureus […]-1) of some compounds of the invention are as shown in Table 3. | **mice, S.C.,

[3] = system: Acinetobacter calcoaceticus IFO 13006; assay: Antibacterial spectrum, minimal inhibitory concentration (Table D); format: cell-based; details: IFO13006, dihydrochloride, Bacto-Antibiotic Medium 3 agar, inoculum a loopful of approx. 10^6 CFU/ml
Description: (§1) Tables D and E show the antibacterial spectra of TAN-749A, B, C and D (dihydrochlorides) against various microorganisms.
(§2) Bacto-Antibiotic Medium 3
(§3) Distilled water 1,000 ml
(§4) Inoculum size a loopful of approx.

[4] = system: Alcaligenes faecalis IFO 13111; assay: as above; format: cell-based; details: IFO13111, dihydrochloride, Bacto-Antibiotic Medium 3 agar, inoculum a loopful of approx. 10^6 CFU/ml
Description: as §1, §2, §3, §4

[5] = system: Citrobacter freundii IFO 12681; assay: as above; format: cell-based; details: IFO12681, dihydrochloride, Bacto-Antibiotic Medium 3 agar, inoculum a loopful of approx. 10^6 CFU/ml
Description: as §1, §2, §3, §4

[6] = system: Escherichia coli NIHJ JC2; assay: as above; format: cell-based; details: NIHJJC2, dihydrochloride, Bacto-Antibiotic Medium 3 agar, inoculum a loopful of approx. 10^6 CFU/ml
Description: as §1, §2, §3, §4

[7] = system: Klebsiella pneumoniae IFO 3317; assay: as above; format: cell-based; details: IFO3317, dihydrochloride, Bacto-Antibiotic Medium 3 agar, inoculum a loopful of approx. 10^6 CFU/ml
Description: as §1, §2, §3, §4

[8] = system: Proteus morganii IFO 3168; assay: as above; format: cell-based; details: Morganella morganii, IFO3168; dihydrochloride; Bacto-Antibiotic Medium 3 agar; inoculum a loopful of approx. 10^6 CFU/ml
Description: as §1, §2, §3, §4

[9] = system: Proteus vulgaris IFO 3988; assay: as above; format: cell-based; details: IFO3988, dihydrochloride, Bacto-Antibiotic Medium 3 agar, inoculum a loopful of approx. 10^6 CFU/ml
Description: as §1, §2, §3, §4

[10] = system: Pseudomonas aeruginosa IFO 3080; assay: as above; format: cell-based; details: IFO3080, dihydrochloride, Bacto-Antibiotic Medium 3 agar, inoculum a loopful of approx. 10^6 CFU/ml
Description: as §1, §2, §3, §4

[11] = system: Staphylococcus aureus FDA 209P; assay: as above; format: cell-based; details: FDA209P, dihydrochloride, Bacto-Antibiotic Medium 3 agar, inoculum a loopful of approx. 10^6 CFU/ml
Description: as §1, §2, §3, §4

Escherichia coli T7 [12] = assay: Antibacterial spectrum, minimal inhibitory concentration, agar dilution (Table E); format: cell-based; details: dihydrochloride, medium TSA, inoculum a loopful of 10^8 CFU/ml
Text: as §1
(§5) (Note 1) Determined by the agar dilution method. Inoculum size was a
(§6) loopful of 10^8 CFU/ml.
(§7) (Note 2) TSA (Tripticase Soy Agar; Baltimore Biological Laboratories,
(§8) USA), B--TSA; 10% horse serum/TSA

[13] = system: Pseudomonas aeruginosa P9; assay: as above; format: cell-based; details: dihydrochloride, medium B--TSA (10% horse serum/TSA), inoculum a loopful of 10^8 CFU/ml
Text: as §1, §5, §6, §7, §8

[14] = system: Staphylococcus aureus 308A-1; assay: as above; format: cell-based; details: 308A1, dihydrochloride, medium TSA, inoculum a loopful of 10^8 CFU/ml
Text: as §1, §5, §6, §7, §8

[15] = system: Staphylococcus aureus FDA209P; assay: as above; format: cell-based; details: dihydrochloride, medium B--TSA (10% horse serum/TSA), inoculum a loopful of 10^8 CFU/ml
Text: as §1, §5, §6, §7, §8

[16] = system: Streptococcus pyogenes E-14; assay: as above; format: cell-based; details: E14, dihydrochloride, medium B--TSA (10% horse serum/TSA), inoculum a loopful of 10^8 CFU/ml
Text: as §1, §5, §6, §7, §8

Escherichia coli 0-111 = assay: Therapeutic effect on infectious disease in mice (Table G); format: in vivo; details: Escherichia coli, 0111, sc, dihydrochloride, bacteria infected intraperitoneally, subcutaneous administration
[17] = system: Staphylococcus aureus 308A-1; assay: as above; format: in vivo; details: bacteria infected intraperitoneally
[18] = system: Pseudomonas aeruginosa P-9; assay: as above; format: in vivo; details: P9, sc, dihydrochloride, bacteria infected intraperitoneally, subcutaneous administration
[19] = Preliminary acute toxicities in mice (Table H); details: mouse, in vivo, dihydrochloride
Escherichia coli T7 [20] = assay: Therapeutic effect on infectious disease in mice (Table G); format: in vivo; details: T7, sc, dihydrochloride, bacteria infected intraperitoneally, subcutaneous administration
pKa' value = format: physicochemical; details: dihydrochloride
Solubility = format: physicochemical
[21] = 308A1, sc, dihydrochloride, subcutaneous administration

## CC=CC=C(C)C(=O)NCC(O)CC(N)CC(=O)NCCC(=N)N (stereo not shown) [44b]
S. aureus 308A-1 [1]
  MIC: 100 µg/mL (≈ 295 µM)
S. aureus 308A-1 [2]
  ED50: 21.5 mg/kg

## C/C=C\C=C(/C)C(=O)NC[C@H](O)C[C@@H](N)CC(=O)NCCC(=N)N [101b]
S. aureus 308A-1 [1]
  MIC: > 100 µg/mL
S. aureus 308A-1 [2]
  ED50: 7.02 mg/kg

## C=C/C=C(\C)C(=O)NC[C@H](O)C[C@@H](N)CC(=O)NCCC(=N)N [112b]
S. aureus 308A-1 [1]
  MIC: > 100 µg/mL
S. aureus 308A-1 [2]
  ED50: 6.25 mg/kg

## N=C(N)CCNC(=O)C[C@H](N)C[C@@H](O)CNC(=O)/C=C/C=C\Cl [120b]
S. aureus 308A-1 [1]
  MIC: > 100 µg/mL
S. aureus 308A-1 [2]
  ED50: 8.61 mg/kg

## C/C=C\C=C\C(=O)NC[C@H](O)C[C@@H](N)CC(=O)NCC(C)C(=N)N (stereo partly shown) [124b]
S. aureus 308A-1 [1]
  MIC: > 100 µg/mL
S. aureus 308A-1 [2]
  ED50: 7.2 mg/kg

## C/C=C\C=C\C(=O)NC[C@H](O)C[C@@H](N)CC(=O)NCCC(=N)NC [125b]
S. aureus 308A-1 [1]
  MIC: > 100 µg/mL
S. aureus 308A-1 [2]
  ED50: 19.2 mg/kg

## C/C=C\C=C\C(=O)NC[C@H](O)C[C@H](CC(=O)NCCC(=N)N)NC(=O)CN [133b]
S. aureus 308A-1 [1]
  MIC: > 100 µg/mL
S. aureus 308A-1 [2]
  ED50: 8.41 mg/kg

## C/C=C\C=C\C(=O)NC[C@H](O)C[C@H](CC(=O)NCCC(=N)N)NC(=O)C(N)CO (stereo partly shown) [134b]
S. aureus 308A-1 [1]
  MIC: > 100 µg/mL
S. aureus 308A-1 [2]
  ED50: 7.79 mg/kg

## C/C=C\C=C\C(=O)NC[C@H](O)C[C@H](CC(=O)NCCC(=N)N)NC(=O)[C@H](C)N [136b]
S. aureus 308A-1 [1]
  MIC: > 100 µg/mL
S. aureus 308A-1 [2]
  ED50: 8.16 mg/kg

## C/C=C/C=C/C(=O)NCC(O)CC(N)CC(=O)NCCC(=N)N (stereo not shown) [III]
[3]
  MIC: > 100 µg/mL
[4]
  MIC: 12.5 µg/mL (≈ 38.4 µM)
[5]
  MIC: > 100 µg/mL
[6]
  MIC: > 100 µg/mL
[7]
  MIC: > 100 µg/mL
[8]
  MIC: > 100 µg/mL
[9]
  MIC: 100 µg/mL (≈ 307 µM)
[10]
  MIC: 50 µg/mL (≈ 154 µM)
[11]
  MIC: > 100 µg/mL
Escherichia coli T7 [12]
  MIC: > 100 µg/mL
[13]
  MIC: 100 µg/mL (≈ 307 µM)
[14]
  MIC: > 100 µg/mL
[15]
  MIC: > 100 µg/mL
[16]
  MIC: 100 µg/mL (≈ 307 µM)
Escherichia coli 0-111
  ED50: 50 mg/kg
[17]; [21]
  ED50: 12.5 mg/kg

## C/C=C\C=C\C(=O)NC(C)C(O)CC(N)CC(=O)NCCC(=N)N (stereo not shown) [II]
[3]
  MIC: 50 µg/mL (≈ 147 µM)
[4]
  MIC: 6.25 µg/mL (≈ 18.4 µM)
[5]
  MIC: ≥ 100 µg/mL
[6]
  MIC: > 100 µg/mL
[7]
  MIC: 100 µg/mL (≈ 295 µM)
[8]
  MIC: 100 µg/mL (≈ 295 µM)
[9]
  MIC: 25 µg/mL (≈ 73.7 µM)
[10]
  MIC: 50 µg/mL (≈ 147 µM)
[11]
  MIC: 12.5 µg/mL (≈ 36.8 µM)
Escherichia coli T7 [12]
  MIC: 12.5 µg/mL (≈ 36.8 µM)
[13]
  MIC: 50 µg/mL (≈ 147 µM)
[14]
  MIC: 3.13 µg/mL (≈ 9.22 µM)
[15]
  MIC: 3.13 µg/mL (≈ 9.22 µM)
[16]
  MIC: 6.25 µg/mL (≈ 18.4 µM)
Escherichia coli 0-111
  ED50: 27.3 mg/kg
[18]
  ED50: 61.4 mg/kg
[17]; 308A1, dihydrochloride, oral administration
  ED50: 16.2 mg/kg
[17]; [21]
  ED50: 0.351 mg/kg
[19]; sc, subcutaneous
  LD50: 400 to 800 mg/kg

## C/C=C/C=C/C(=O)NC(C)C(O)CC(N)CC(=O)NCCC(=N)N (stereo not shown) [IV]
[3]
  MIC: > 100 µg/mL
[4]
  MIC: 6.25 µg/mL (≈ 18.4 µM)
[5]
  MIC: > 100 µg/mL
[6]
  MIC: > 100 µg/mL
[7]
  MIC: > 100 µg/mL
[8]
  MIC: > 100 µg/mL
[9]
  MIC: 100 µg/mL (≈ 295 µM)
[10]
  MIC: 100 µg/mL (≈ 295 µM)
[11]
  MIC: 50 µg/mL (≈ 147 µM)
Escherichia coli T7 [12]
  MIC: 50 µg/mL (≈ 147 µM)
[13]
  MIC: 100 µg/mL (≈ 295 µM)
[14]
  MIC: 25 µg/mL (≈ 73.7 µM)
[15]
  MIC: 25 µg/mL (≈ 73.7 µM)
[16]
  MIC: 25 µg/mL (≈ 73.7 µM)
[17]; [21]
  ED50: < 6.25 mg/kg

## C/C=C\C=C\C(=O)NCC(O)CC(N)CC(=O)NCCC(=N)N (stereo not shown) [I]
[3]
  MIC: 25 µg/mL (≈ 76.8 µM)
[4]
  MIC: 3.13 µg/mL (≈ 9.62 µM)
[5]
  MIC: ≥ 100 µg/mL
[6]
  MIC: > 100 µg/mL
[7]
  MIC: > 100 µg/mL
[8]
  MIC: > 100 µg/mL
[9]
  MIC: 100 µg/mL (≈ 307 µM)
[11]
  MIC: 50 µg/mL (≈ 154 µM)
Escherichia coli T7 [12]
  MIC: 50 µg/mL (≈ 154 µM)
[13]
  MIC: 100 µg/mL (≈ 307 µM)
[14]
  MIC: 12.5 µg/mL (≈ 38.4 µM)
[15]
  MIC: 12.5 µg/mL (≈ 38.4 µM)
[16]
  MIC: 3.13 µg/mL (≈ 9.62 µM)
Escherichia coli 0-111
  ED50: 67.2 mg/kg
Escherichia coli T7 [20]
  ED50: 50.8 mg/kg
[17]; [21]
  ED50: 1.31 mg/kg
[19]; oral
  LD50: 2000 to 4000 mg/kg
[19]; sc, subcutaneous
  LD50: ~500 mg/kg

## CN(CC(=O)O)NC(=O)C[C@H](N)C[C@@H](O)CN [Negamycin, 2-(3R,5R)-3,6-diamino-5-hydroxyhexanoyl-1-methylhydrazinoacetic acid, reference compound]
S. aureus 308A-1 [1]
  MIC: > 100 µg/mL

## C/C=C\C=C\C(=O)NCC(O)CC(N)CC(=O)NCCC(=N)N (stereo not shown) [TAN-749A dihydrochloride]
pKa' value
  pKa: 8
Solubility; dihydrochloride
  Solubility: Soluble: Water, Dimethyl sulfoxide, Methanol
  Solubility: Sparingly soluble: Acetone, Ethyl acetate, Diethyl ether

## C/C=C\C=C\C(=O)NC(C)C(O)CC(N)CC(=O)NCCC(=N)N (stereo not shown) [TAN-749B dihydrochloride]
pKa' value
  pKa: 8.05
Solubility
  Solubility (by reference to TAN-749A dihydrochloride): Same with TAN-749A dihydrochloride

## C/C=C/C=C/C(=O)NCC(O)CC(N)CC(=O)NCCC(=N)N (stereo not shown) [TAN-749C dihydrochloride]
Solubility
  Solubility (by reference to TAN-749A dihydrochloride): Same with TAN-749A dihydrochloride

## C/C=C/C=C/C(=O)NC(C)C(O)CC(N)CC(=O)NCCC(=N)N (stereo not shown) [TAN-749D dihydrochloride]
Solubility
  Solubility (by reference to TAN-749A dihydrochloride): Same with TAN-749A dihydrochloride

## C/C=C\C=C\C(=O)NCC(O)CC(CC(=O)NCCC(=N)N)NC (stereo not shown) [compound 80]
S. aureus 308A-1 [1]
  MIC: > 100 µg/mL

## C/C=C\C=C\C(=O)NCC(O)CC(CC(=O)NCCC(=N)N)NCC (stereo not shown) [compound 82]
S. aureus 308A-1 [1]
  MIC: > 100 µg/mL
S. aureus 308A-1 [2]
  ED50: 25 mg/kg
